# In the NIST ThermoML archive (doi:10.1021/je0501843):
# “And” between values parts separate entries of the source, which are not always exact repeats. Equal values may be shown once. ± gives the expanded uncertainty stated by the source.
# Assay: molar heat capacity at constant volume; wn = mass fraction of the nth substance listed
# Details: Fluid (supercritical or subcritical phases), Vacuum adiabatic calorimetry, w1 = 0.5001
structure (smiles),measurement,setting,value
FC(F)C(F)(F)F [pentafluoroethane] + FCF,molar heat capacity at constant volume,"327 K, 6225 kPa",69.92 ± 1.4 J/K/mol
same,molar heat capacity at constant volume,"327 K, 19088 kPa",66.16 ± 1.3 J/K/mol
same,molar heat capacity at constant volume,"327 K, 19090 kPa",66.42 ± 1.3 J/K/mol
same,molar heat capacity at constant volume,"328 K, 6615 kPa",70.49 ± 1.4 J/K/mol
same,molar heat capacity at constant volume,"328 K, 6616 kPa",71.47 ± 1.4 J/K/mol
same,molar heat capacity at constant volume,"328 K, 19652 kPa",66.1 ± 1.3 J/K/mol
same,molar heat capacity at constant volume,"328 K, 19655 kPa",66.08 ± 1.3 J/K/mol
same,molar heat capacity at constant volume,"329 K, 7006 kPa",70.47 ± 1.4 J/K/mol
same,molar heat capacity at constant volume,"329 K, 7007 kPa",71.63 ± 1.4 J/K/mol
same,molar heat capacity at constant volume,"330 K, 7397 kPa",69.74 ± 1.4 J/K/mol
same,molar heat capacity at constant volume,"330 K, 7399 kPa",71.02 ± 1.4 J/K/mol
same,molar heat capacity at constant volume,"331 K, 7788 kPa",69.69 ± 1.4 J/K/mol
same,molar heat capacity at constant volume,"331 K, 7790 kPa",71.06 ± 1.4 J/K/mol
same,molar heat capacity at constant volume,"332 K, 8183 kPa",71.27 ± 1.4 J/K/mol
same,molar heat capacity at constant volume,"332 K, 8184 kPa",70.57 ± 1.4 J/K/mol
same,molar heat capacity at constant volume,"333 K, 8579 kPa",70.36 ± 1.4 J/K/mol and 71.51 ± 1.4 J/K/mol
same,molar heat capacity at constant volume,"334 K, 8970 kPa",71.08 ± 1.4 J/K/mol
same,molar heat capacity at constant volume,"334 K, 8971 kPa",69.51 ± 1.4 J/K/mol
same,molar heat capacity at constant volume,"335 K, 9364 kPa",69.28 ± 1.4 J/K/mol and 70.76 ± 1.4 J/K/mol
same,molar heat capacity at constant volume,"336 K, 9759 kPa",69.92 ± 1.4 J/K/mol and 70.89 ± 1.4 J/K/mol
same,molar heat capacity at constant volume,"337 K, 10156 kPa",71.33 ± 1.4 J/K/mol
same,molar heat capacity at constant volume,"337 K, 10157 kPa",70.6 ± 1.4 J/K/mol
same,molar heat capacity at constant volume,"338 K, 6179 kPa",73.09 ± 1.5 J/K/mol
same,molar heat capacity at constant volume,"338 K, 10552 kPa",71.08 ± 1.4 J/K/mol
same,molar heat capacity at constant volume,"338 K, 10553 kPa",69.86 ± 1.4 J/K/mol
same,molar heat capacity at constant volume,"339 K, 6478 kPa",73.25 ± 1.5 J/K/mol
same,molar heat capacity at constant volume,"339 K, 10948 kPa",68.64 ± 1.4 J/K/mol and 70.46 ± 1.4 J/K/mol
same,molar heat capacity at constant volume,"340 K, 6782 kPa",73.55 ± 1.5 J/K/mol
same,molar heat capacity at constant volume,"340 K, 11344 kPa",69.16 ± 1.4 J/K/mol
same,molar heat capacity at constant volume,"340 K, 11346 kPa",71.1 ± 1.4 J/K/mol
same,molar heat capacity at constant volume,"341 K, 7089 kPa",73.85 ± 1.5 J/K/mol
same,molar heat capacity at constant volume,"341 K, 11743 kPa",69.77 ± 1.4 J/K/mol
same,molar heat capacity at constant volume,"341 K, 11745 kPa",71.13 ± 1.4 J/K/mol
same,molar heat capacity at constant volume,"342 K, 7389 kPa",73.14 ± 1.5 J/K/mol
same,molar heat capacity at constant volume,"342 K, 12139 kPa",69.04 ± 1.4 J/K/mol
same,molar heat capacity at constant volume,"342 K, 12142 kPa",70.69 ± 1.4 J/K/mol
same,molar heat capacity at constant volume,"343 K, 7693 kPa",72.74 ± 1.5 J/K/mol
same,molar heat capacity at constant volume,"343 K, 12536 kPa",68.97 ± 1.4 J/K/mol
same,molar heat capacity at constant volume,"343 K, 12538 kPa",70.99 ± 1.4 J/K/mol
same,molar heat capacity at constant volume,"344 K, 7998 kPa",73.01 ± 1.5 J/K/mol
same,molar heat capacity at constant volume,"344 K, 12935 kPa",69.06 ± 1.4 J/K/mol
same,molar heat capacity at constant volume,"344 K, 12936 kPa",70.57 ± 1.4 J/K/mol
same,molar heat capacity at constant volume,"345 K, 8306 kPa",73.42 ± 1.5 J/K/mol
same,molar heat capacity at constant volume,"345 K, 13334 kPa",70.04 ± 1.4 J/K/mol
same,molar heat capacity at constant volume,"346 K, 8612 kPa",73.52 ± 1.5 J/K/mol
same,molar heat capacity at constant volume,"346 K, 13733 kPa",70.31 ± 1.4 J/K/mol
same,molar heat capacity at constant volume,"347 K, 6281 kPa",76.51 ± 1.5 J/K/mol
same,molar heat capacity at constant volume,"347 K, 8917 kPa",72.76 ± 1.5 J/K/mol
same,molar heat capacity at constant volume,"347 K, 14131 kPa",69.61 ± 1.4 J/K/mol
